Measured values reported in article PMC7822874, “Chemoprotective antimalarials identified through quantitative high-throughput screening of Plasmodium blood and liver stage parasites” (Scientific Reports, 2021).
Read-outs that look alike come from different tables or passages of the source.

Key:
[1] = test system: P. berghei-ANKA-GFP-LucCON liver stage parasites in HepG2-A16-CD81EGFP cells; assay: P. berghei liver stage Pb-Luc assay, Method 1 (UCSD, 1536-well); type: cell-based, Plasmodium berghei; conditions: Plasmodium berghei, 48 h
[2] = test system: Plasmodium falciparum Dd2 asexual blood stage parasites; assay: microbe, parasite or virus in culture; design: species or system Plasmodium falciparum Dd2 in human erythrocytes; single determination (one 11-point concentration-response curve); conditions: Plasmodium falciparum, DD2, Erythrocyte, 72 h; read-out: AC50
HepG2-A16-CD81EGFP cells = conditions: average of 2 wells; for HepG2 1uM growth rep1 / HepG2 1uM growth rep2: HepG2, 1 µM compound treatment (10 mM stocks); for HepG2 1uM growth rep1 / HepG2 3uM growth rep1: replicate 1, normalized; for HepG2 1uM growth rep2 / HepG2 3uM growth rep2: replicate 2, normalized; for HepG2 3uM growth rep1 / HepG2 3uM growth rep2: HepG2, 3 µM compound treatment (10 mM stocks)
[3] = P. berghei liver stage, 1 µM compound treatment (10 mM stocks), replicate 1, normalized, average of 2 wells on a 1536 well plate, read-out: PbLuc 1uM growth rep1
[4] = P. berghei liver stage, 1 µM compound treatment (10 mM stocks), replicate 2, normalized, average of 2 wells on a 1536 well plate, read-out: PbLuc 1uM growth rep2
[5] = P. berghei liver stage, 3 µM compound treatment (10 mM stocks), replicate 1, normalized, average of 2 wells on a 1536 well plate, read-out: PbLuc 3uM growth rep1
[6] = P. berghei liver stage, 3 µM compound treatment (10 mM stocks), replicate 2, normalized, average of 2 wells on a 1536 well plate, read-out: PbLuc 3uM growth rep2

COc1ccc(C2Sc3ccccc3N=C3C2=C(O)c2ccccc23)c(OC)c1OC (centres unmarked) [NCGC00108825-01]
activity at 1 µM ([1]; nominal 1 uM (10 mM stock), […] for 15 mM, 1.2 uM for 12 mM, 2 uM for 20 mM stock, average of 2 wells, 1536-well plate, repeat 1, read-out: Pb-Luc signal, 1 uM, repeat 1): 80.6%
activity at 1 µM ([1]; nominal 1 uM (10 mM stock), […] for 15 mM, 1.2 uM for 12 mM, 2 uM for 20 mM stock, average of 2 wells, 1536-well plate, repeat 2, read-out: Pb-Luc signal, 1 uM, repeat 2): 95.6%
activity at 1 µM ([1]; nominal 1 uM (10 mM stock), […] for 15 mM, 1.2 uM for 12 mM, 2 uM for 20 mM stock, average of 2 wells, 1536-well plate, repeat 3, read-out: Pb-Luc signal, 1 uM, repeat 3): 53.5%
activity at 3 µM ([1]; nominal 3 uM (10 mM stock), 4.5 uM for 15 mM, 3.6 uM for 12 mM, 6 uM for 20 mM stock, average of 2 wells, 1536-well plate, repeat 1, read-out: Pb-Luc signal, 3 uM, repeat 1): 34.1%
activity at 3 µM ([1]; nominal 3 uM (10 mM stock), 4.5 uM for 15 mM, 3.6 uM for 12 mM, 6 uM for 20 mM stock, average of 2 wells, 1536-well plate, repeat 2, read-out: Pb-Luc signal, 3 uM, repeat 2): 70.7%
activity at 3 µM ([1]; nominal 3 uM (10 mM stock), 4.5 uM for 15 mM, 3.6 uM for 12 mM, 6 uM for 20 mM stock, average of 2 wells, 1536-well plate, repeat 3, read-out: Pb-Luc signal, 3 uM, repeat 3): 74.5%
AC50 [2]: 750 nM
HepG2 viability signal, 1 uM, repeat 1 (HepG2-A16-CD81EGFP cells; nominal 1 uM (10 mM stock), […] for 15 mM, 1.2 uM for 12 mM, 2 uM for 20 mM stock, repeat 1): 40.50%
HepG2 viability signal, 1 uM, repeat 2 (HepG2-A16-CD81EGFP cells; nominal 1 uM (10 mM stock), […] for 15 mM, 1.2 uM for 12 mM, 2 uM for 20 mM stock, repeat 2): 77.27%
HepG2 viability signal, 3 uM, repeat 1 (HepG2-A16-CD81EGFP cells; nominal 3 uM (10 mM stock), 4.5 uM for 15 mM, 3.6 uM for 12 mM, 6 uM for 20 mM stock, repeat 1): 21.41%
HepG2 viability signal, 3 uM, repeat 2 (HepG2-A16-CD81EGFP cells; nominal 3 uM (10 mM stock), 4.5 uM for 15 mM, 3.6 uM for 12 mM, 6 uM for 20 mM stock, repeat 2): 66.08%

CCOC(=O)C1CCN(Cc2cc(Cl)c3ccccc3c2O)CC1 [MLS001171913-01]
activity at 1 µM [1, 3]: 100%
activity at 1 µM [1, 4]: 93%
activity at 3 µM [1, 5]: 91%
activity at 3 µM [1, 6]: 110%
AC50 [2]: 1880 nM
HepG2 1uM growth rep1 (HepG2-A16-CD81EGFP cells): 88%
HepG2 1uM growth rep2 (HepG2-A16-CD81EGFP cells): 93%
HepG2 3uM growth rep1 (HepG2-A16-CD81EGFP cells): 88%
HepG2 3uM growth rep2 (HepG2-A16-CD81EGFP cells): 86%

CCOC(=O)c1c(CN2CCN(c3ccccc3)CC2)oc2cc(Br)c(O)cc12 [MLS001198242-01]
activity at 1 µM [1, 3]: 136%
activity at 1 µM [1, 4]: 107%
activity at 3 µM [1, 5]: 96%
activity at 3 µM [1, 6]: 86%
AC50 [2]: 1880 nM
HepG2 1uM growth rep1 (HepG2-A16-CD81EGFP cells): 109%
HepG2 1uM growth rep2 (HepG2-A16-CD81EGFP cells): 100%
HepG2 3uM growth rep1 (HepG2-A16-CD81EGFP cells): 87%
HepG2 3uM growth rep2 (HepG2-A16-CD81EGFP cells): 95%

O=C(Nc1ccc(Nc2ccncc2)cc1)c1ccc(Nc2ccnc3ccc([N+](=O)[O-])cc23)cc1 [MLS000766132-01]
activity at 1 µM [1, 3]: 125%
activity at 1 µM [1, 4]: 103%
activity at 3 µM [1, 5]: 94%
activity at 3 µM [1, 6]: 98%
AC50 [2]: 750 nM
HepG2 1uM growth rep1 (HepG2-A16-CD81EGFP cells): 92%
HepG2 1uM growth rep2 (HepG2-A16-CD81EGFP cells): 91%
HepG2 3uM growth rep1 (HepG2-A16-CD81EGFP cells): 89%
HepG2 3uM growth rep2 (HepG2-A16-CD81EGFP cells): 92%

COc1cc(NC(=O)c2cc([N+](=O)[O-])ccc2NC(=O)CNC2CCCCC2C)cc(OC)c1 (centres unmarked) [MLS000950459-01]
activity at 1 µM [1, 3]: 94%
activity at 1 µM [1, 4]: 109%
activity at 3 µM [1, 5]: 82%
activity at 3 µM [1, 6]: 122%
AC50 [2]: 5960 nM
HepG2 1uM growth rep1 (HepG2-A16-CD81EGFP cells): 96%
HepG2 1uM growth rep2 (HepG2-A16-CD81EGFP cells): 92%
HepG2 3uM growth rep1 (HepG2-A16-CD81EGFP cells): 90%
HepG2 3uM growth rep2 (HepG2-A16-CD81EGFP cells): 90%

Cc1ccc(Sc2ccc(NC(=O)CCl)cc2)cc1C [MLS000334846-01]
activity at 1 µM [1, 3]: 124%
activity at 1 µM [1, 4]: 83%
activity at 3 µM [1, 5]: 88%
activity at 3 µM [1, 6]: 81%
AC50 [2]: 9440 nM
HepG2 1uM growth rep1 (HepG2-A16-CD81EGFP cells): 92%
HepG2 1uM growth rep2 (HepG2-A16-CD81EGFP cells): 91%
HepG2 3uM growth rep1 (HepG2-A16-CD81EGFP cells): 92%
HepG2 3uM growth rep2 (HepG2-A16-CD81EGFP cells): 96%

O=C(CSc1nc(Nc2ccccc2)nc(N2CCOCC2)n1)Nc1cc(Cl)ccc1O [MLS001035450-01]
activity at 1 µM [1, 3]: 97%
activity at 1 µM [1, 4]: 93%
activity at 3 µM [1, 5]: 67%
activity at 3 µM [1, 6]: 102%
AC50 [2]: 2370 nM
HepG2 1uM growth rep1 (HepG2-A16-CD81EGFP cells): 100%
HepG2 1uM growth rep2 (HepG2-A16-CD81EGFP cells): 92%
HepG2 3uM growth rep1 (HepG2-A16-CD81EGFP cells): 83%
HepG2 3uM growth rep2 (HepG2-A16-CD81EGFP cells): 88%

O=C(CCl)Nc1ccc(Oc2cnc3ccccc3n2)cc1 [MLS000327546-01]
activity at 1 µM [1, 3]: 99%
activity at 1 µM [1, 4]: 119%
activity at 3 µM [1, 5]: 104%
activity at 3 µM [1, 6]: 138%
AC50 [2]: 3350 nM
HepG2 1uM growth rep1 (HepG2-A16-CD81EGFP cells): 90%
HepG2 1uM growth rep2 (HepG2-A16-CD81EGFP cells): 86%
HepG2 3uM growth rep1 (HepG2-A16-CD81EGFP cells): 92%
HepG2 3uM growth rep2 (HepG2-A16-CD81EGFP cells): 90%

COc1cccc(NC(=O)CN(C)C(=O)c2ccc(-c3cccc(C(F)(F)F)c3)o2)c1 [MLS001071804-01]
activity at 1 µM [1, 3]: 153%
activity at 1 µM [1, 4]: 125%
activity at 3 µM [1, 5]: 107%
activity at 3 µM [1, 6]: 104%
AC50 [2]: 596 nM
HepG2 1uM growth rep1 (HepG2-A16-CD81EGFP cells): 105%
HepG2 1uM growth rep2 (HepG2-A16-CD81EGFP cells): 98%
HepG2 3uM growth rep1 (HepG2-A16-CD81EGFP cells): 84%
HepG2 3uM growth rep2 (HepG2-A16-CD81EGFP cells): 96%

CCOC(=O)c1c(NC(=O)C[n+]2ccc(N(C)C)cc2)sc(C)c1C [MLS000710762-01]
activity at 1 µM [1, 3]: 75%
activity at 1 µM [1, 4]: 72%
activity at 3 µM [1, 5]: 18%
activity at 3 µM [1, 6]: 30%
AC50 [2]: 1330 nM
HepG2 1uM growth rep1 (HepG2-A16-CD81EGFP cells): 91%
HepG2 1uM growth rep2 (HepG2-A16-CD81EGFP cells): 84%
HepG2 3uM growth rep1 (HepG2-A16-CD81EGFP cells): 65%
HepG2 3uM growth rep2 (HepG2-A16-CD81EGFP cells): 65%

Cc1ccc(C)c2sc(N3CCN(C(=O)c4ccc([N+](=O)[O-])o4)CC3)nc12 [MLS001234268-01]
activity at 1 µM [1, 3]: 97%
activity at 1 µM [1, 4]: 91%
activity at 3 µM [1, 5]: 57%
activity at 3 µM [1, 6]: 53%
AC50 [2]: 4730 nM
HepG2 1uM growth rep1 (HepG2-A16-CD81EGFP cells): 104%
HepG2 1uM growth rep2 (HepG2-A16-CD81EGFP cells): 96%
HepG2 3uM growth rep1 (HepG2-A16-CD81EGFP cells): 90%
HepG2 3uM growth rep2 (HepG2-A16-CD81EGFP cells): 99%

Cc1ccc(-c2cc(C(F)(F)F)n3ncc(C(=O)N4CCCCC4c4cccnc4)c3n2)cc1 (centres unmarked) [MLS000729132-01]
activity at 1 µM [1, 3]: 126%
activity at 1 µM [1, 4]: 132%
activity at 3 µM [1, 5]: 100%
activity at 3 µM [1, 6]: 119%
AC50 [2]: 1880 nM
HepG2 1uM growth rep1 (HepG2-A16-CD81EGFP cells): 101%
HepG2 1uM growth rep2 (HepG2-A16-CD81EGFP cells): 94%
HepG2 3uM growth rep1 (HepG2-A16-CD81EGFP cells): 89%
HepG2 3uM growth rep2 (HepG2-A16-CD81EGFP cells): 91%

COc1ccc2[nH]c(C)c(CCN(Cc3cccs3)C(S)=Nc3ccccc3)c2c1 [MLS000529828-01]
activity at 1 µM [1, 3]: 145%
activity at 1 µM [1, 4]: 108%
activity at 3 µM [1, 5]: 101%
activity at 3 µM [1, 6]: 128%
AC50 [2]: 2660 nM
HepG2 1uM growth rep1 (HepG2-A16-CD81EGFP cells): 91%
HepG2 1uM growth rep2 (HepG2-A16-CD81EGFP cells): 90%
HepG2 3uM growth rep1 (HepG2-A16-CD81EGFP cells): 85%
HepG2 3uM growth rep2 (HepG2-A16-CD81EGFP cells): 88%

Cc1cc(C)c(C)c(S(=O)(=O)NCc2ccc(C(=O)N3CCCCC3)cc2)c1C [MLS000547926-01]
activity at 1 µM [1, 3]: 124%
activity at 1 µM [1, 4]: 129%
activity at 3 µM [1, 5]: 104%
activity at 3 µM [1, 6]: 108%
AC50 [2]: 3760 nM
HepG2 1uM growth rep1 (HepG2-A16-CD81EGFP cells): 93%
HepG2 1uM growth rep2 (HepG2-A16-CD81EGFP cells): 95%
HepG2 3uM growth rep1 (HepG2-A16-CD81EGFP cells): 87%
HepG2 3uM growth rep2 (HepG2-A16-CD81EGFP cells): 94%
